Measurements published in PubChem BioAssay AID330 (DTP/NCI, 2004).
Several values for one entry are separate records, joined by “and”; a condition that tells them apart may be missing. Equal values may be shown once. Toxic doses and inconclusive results are not listed. Rule for the calls: active = survival T/C of 150% or more; inactive = T/C below 125% in these data.

System: P388 leukemia ip, CD2F1 mice, survival T/C
Test: NCI In Vivo Anticancer Drug Screen. Data for tumor model P388 Leukemia (intraperitoneal) in CD2F1 (CDF1) mice
Details: endpoint: median survival time, higher = longer survival
Procedure, shortened: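 Mice carrying the transplanted tumor received test compound or vehicle. Survival was recorded in each group, and the value is the treated-group measurement divided by that of the vehicle-treated control group.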

[1] = dose: 50.0 mg/kg/injection, schedule: Q01DX005 (ip), vehicle: Klucel (hydroxypropylcellulose) (HPC)
[2] = dose: 100.0 mg/kg/injection, schedule: Q01DX005 (ip), vehicle: Klucel (hydroxypropylcellulose) (HPC)
[3] = dose: 200.0 mg/kg/injection, schedule: Q01DX005 (ip), vehicle: Klucel (hydroxypropylcellulose) (HPC)
[4] = dose: 100.0 mg/kg/injection, schedule: Q01DX009 (ip), vehicle: saline with Tween-80
[5] = dose: 200.0 mg/kg/injection, schedule: Q01DX009 (ip), vehicle: saline with Tween-80
[6] = dose: 400.0 mg/kg/injection, schedule: Q01DX009 (ip), vehicle: saline with Tween-80
[7] = dose: 50.0 mg/kg/injection, schedule: Q01DX005 (ip), vehicle: saline with Tween-80
[8] = dose: 100.0 mg/kg/injection, schedule: Q01DX005 (ip), vehicle: saline with Tween-80
[9] = dose: 200.0 mg/kg/injection, schedule: Q01DX005 (ip), vehicle: saline with Tween-80
[10] = dose: 50.0 mg/kg/injection, schedule: Q01DX009 (ip), vehicle: saline with Tween-80
[11] = dose: 12.5 mg/kg/injection, schedule: Q04DX003 (ip), vehicle: saline with Tween-80
[12] = dose: 25.0 mg/kg/injection, schedule: Q04DX003 (ip), vehicle: saline with Tween-80
[13] = dose: 100.0 mg/kg/injection, schedule: Q04DX002 (ip), vehicle: saline with Tween-80
[14] = dose: 200.0 mg/kg/injection, schedule: Q04DX002 (ip), vehicle: saline with Tween-80
[15] = dose: 400.0 mg/kg/injection, schedule: Q04DX002 (ip), vehicle: saline with Tween-80
[16] = dose: 50.0 mg/kg/injection, schedule: Q01DX009 (ip), vehicle: saline
[17] = dose: 100.0 mg/kg/injection, schedule: Q01DX009 (ip), vehicle: saline
[18] = dose: 200.0 mg/kg/injection, schedule: Q01DX009 (ip), vehicle: saline

Measured: T/C

C(=NCCC[Si]12OCCN(CCO1)CCO2)c1ccccc1
inactive: [1] 105 % of control | [2] 98 % of control | [3] 102 % of control

O=C(CN1CCOCC1)Nc1cccc(C(F)(F)F)c1
inactive: [4] 110 % of control | [5] 100 % of control | [6] 110 % of control

COc1cc([C@@H]2c3cc4c(c(O)c3C[C@H]3COC(=O)[C@@H]32)OCO4)cc(OC)c1OC
inactive: dose: 0.12 mg/kg/injection, schedule: Q01DX009 (ip), vehicle: saline 113 % of control | dose: 0.12 mg/kg/injection, schedule: Q01DX009 (ip), vehicle: suspension in saline 111 % of control | dose: 0.25 mg/kg/injection, schedule: Q01DX009 (ip), vehicle: saline 119 % of control | dose: 0.25 mg/kg/injection, schedule: Q01DX009 (ip), vehicle: suspension in saline 119 % of control | dose: 0.5 mg/kg/injection, schedule: Q01DX009 (ip), vehicle: saline 124 % of control

CCS(=O)C(F)(F)C(F)Cl (stereo not drawn)
inactive: [7] 97 % of control | [8] 100 % of control | [9] 100 % of control

NC(=S)c1ccc(C2Nc3ccc(Cl)cc3N2)cc1 (stereo not drawn)
inactive: dose: 12.5 mg/kg/injection, schedule: Q04DX002 (ip), vehicle: saline with Tween-80 106 % of control | dose: 25.0 mg/kg/injection, schedule: Q04DX002 (ip), vehicle: saline with Tween-80 94 % of control | dose: 50.0 mg/kg/injection, schedule: Q04DX002 (ip), vehicle: saline with Tween-80 90 % of control

Cc1cc(C)c2nccc(/C=C/c3ccc(N(C)C)cc3)c2c1
inactive: [10] 110 % of control | [4] 108 % of control | [5] 116 % of control | [6] 91 % of control

CCOc1c(OC)cc(C2c3cc4c(c(OCC)c3CC3COC(=O)C32)OCO4)cc1OC (stereo not drawn)
inactive: dose: 12.5 mg/kg/injection, schedule: Q01DX005 (ip), vehicle: Klucel (hydroxypropylcellulose) (HPC) 94 % of control | dose: 25.0 mg/kg/injection, schedule: Q01DX005 (ip), vehicle: Klucel (hydroxypropylcellulose) (HPC) 91 % of control | [1] 86 % of control | [2] 97 % of control

COc1c(-c2ccc3c(c2)OCO3)oc2cc(O)cc(O)c2c1=O
inactive: dose: 6.25 mg/kg/injection, schedule: Q01DX005 (ip), vehicle: saline with Tween-80 100 % of control | dose: 12.5 mg/kg/injection, schedule: Q01DX005 (ip), vehicle: saline with Tween-80 100 % of control | dose: 25.0 mg/kg/injection, schedule: Q01DX005 (ip), vehicle: saline with Tween-80 104 % of control | [8] 89 % of control | [9] 105 % of control

[Cl][Cu][Cl].[O-][n+]1c2ccccc2nc2ccccc21
inactive: [11] 92 % of control | [12] 103 % of control

COC(=O)C(N)CN (stereo not drawn)
inactive: dose: 43.75 mg/kg/injection, schedule: Q01DX009 (ip), vehicle: saline with Tween-80 97 % of control | dose: 87.5 mg/kg/injection, schedule: Q01DX009 (ip), vehicle: saline with Tween-80 97 % of control | dose: 175.5 mg/kg/injection, schedule: Q01DX009 (ip), vehicle: saline with Tween-80 97 % of control

CSc1c(C#N)c(N)nn1-c1ccccn1
inactive: [13] 100 % of control | [14] 98 % of control | [15] 99 % of control

CCC(O)(CC(=O)O)c1ccccc1 (stereo not drawn)
inactive: [4] 104 % of control | [5] 95 % of control

CC(NC1=NCCO1)c1cccc2ccccc12 (stereo not drawn)
inactive: [11] 100 % of control | [12] 95 % of control | dose: 50.0 mg/kg/injection, schedule: Q04DX003 (ip), vehicle: saline with Tween-80 100 % of control

CCOC(=O)c1[nH]c2ccc(O)c3c2c1CCC3=O
inactive: [10] 92 % of control | [4] 88 % of control | [5] 94 % of control

CC(=O)Nc1ccc[nH]c1=O
inactive: dose: 25.0 mg/kg/injection, schedule: Q01DX009 (ip), vehicle: Klucel (hydroxypropylcellulose) (HPC) 108 % of control and 96 % of control | dose: 25.0 mg/kg/injection, schedule: Q01DX009 (ip), vehicle: saline 99 % of control and 110 % of control | dose: 50.0 mg/kg/injection, schedule: Q01DX009 (ip), vehicle: Klucel (hydroxypropylcellulose) (HPC) 99 % of control and 104 % of control | [16] 108 % of control and 92 % of control | dose: 100.0 mg/kg/injection, schedule: Q01DX009 (ip), vehicle: Klucel (hydroxypropylcellulose) (HPC) 99 % of control and 104 % of control | [17] 103 % of control and 117 % of control | dose: 200.0 mg/kg/injection, schedule: Q01DX009 (ip), vehicle: Klucel (hydroxypropylcellulose) (HPC) 101 % of control and 96 % of control | [18] 101 % of control and 103 % of control | dose: 400.0 mg/kg/injection, schedule: Q01DX009 (ip), vehicle: Klucel (hydroxypropylcellulose) (HPC) 109 % of control and 96 % of control | dose: 400.0 mg/kg/injection, schedule: Q01DX009 (ip), vehicle: saline 104 % of control and 108 % of control

COC(=O)C[CH2][Sn]([CH3])([CH3])[CH2]CC(=O)OC
inactive: [1] 104 % of control | [2] 100 % of control

COc1cccc2cc3c(NCCCN(C)C)nnc(NCCCN(C)C)c3cc12
inactive: dose: 7.5 mg/kg/injection, schedule: Q01DX005 (ip), vehicle: saline 105 % of control | dose: 15.0 mg/kg/injection, schedule: Q01DX005 (ip), vehicle: saline 98 % of control

CSc1nc(SC)c2c(CNC(C)=O)cn(Cc3ccccc3)c2n1
inactive: dose: 50.0 mg/kg/injection, schedule: Q01DX001 (ip), vehicle: saline with Tween-80 87 % of control | dose: 200.0 mg/kg/injection, schedule: Q01DX001 (ip), vehicle: saline with Tween-80 86 % of control and 87 % of control

CCOC(=O)c1c(N)c(C(=O)c2ccccc2)n2ccc3ccccc3c12
inactive: [13] 100 % of control | [14] 99 % of control | [15] 92 % of control

CC(=O)O[C@H]1CC[C@@]2(C)[C@@H](CC[C@@H]3[C@@H]2CC[C@]2(C)C(=NCCO)CC[C@@H]32)C1
inactive: [1] 108 % of control | [2] 105 % of control | [3] 99 % of control

CC(=O)NC(=O)CCCCCCC(=O)NC(C)=O
inactive: [1] 88 % of control

C[C@]12CC(=O)O[C@@H](C[C@H]1OC(=O)c1ccccc1)[C@@]21CO1
inactive: dose: 1.0 mg/kg/injection, schedule: Q04DX002 (ip), vehicle: distilled water + Tween-80 102 % of control | dose: 2.0 mg/kg/injection, schedule: Q04DX002 (ip), vehicle: distilled water + Tween-80 103 % of control | dose: 4.0 mg/kg/injection, schedule: Q04DX002 (ip), vehicle: distilled water + Tween-80 100 % of control | dose: 8.0 mg/kg/injection, schedule: Q04DX002 (ip), vehicle: distilled water + Tween-80 94 % of control | dose: 16.0 mg/kg/injection, schedule: Q04DX002 (ip), vehicle: distilled water + Tween-80 100 % of control

CC1(CCBr)C(=O)NC(=O)NC1=O
inactive: [7] 101 % of control | [8] 101 % of control | [9] 105 % of control

CC(O)C(N)C(=O)O (stereo not drawn)
inactive: dose: 50.0 mg/kg/injection, schedule: Q01DX005 (ip), vehicle: saline 104 % of control | [16] 103 % of control | dose: 100.0 mg/kg/injection, schedule: Q01DX005 (ip), vehicle: saline 100 % of control and 108 % of control | [17] 105 % of control | dose: 200.0 mg/kg/injection, schedule: Q01DX005 (ip), vehicle: saline 100 % of control and 103 % of control | [18] 102 % of control
